Laboratory results: patent US12187716B2, “TYK2 kinase inhibitors” (SAREUM LIMITED, priority 2018, dated 2025)
pIC50: −log10 of the molar value.

Tests used:
pSTAT3 in HT29 cells = experiment: pSTAT3 inhibition in response to IL-22 stimulation in serum starved HT29 cells; assay type: cell-based
Procedure: HT29 cells were serum starved overnight before the four test compounds were diluted to generate a 9-point semi-log dose dilution with a top concentration of 10 μM, plus vehicle control. HT29 cells were incubated with the test compounds for 20 min at 37° C. HT29 cells were incubated for a further 15 min with 10 ng/ml human IL-22 before cells were fixed with 4% PFA for 10 min, and 90% methanol for 30 min before being labelled with a phospho-STAT3Y705 antibody (CST #9145). Cells were rinsed three times using 0.5% BSA/PBS solution before being incubated with Alexa-488 anti-rabbit secondary antibodies.
Mean fluorescence intensity of phospho-STAT3 in single cells was analysed by flow cytometry using an Intellicyt iQue instrument and FlowJo software. The IC50 was determined using a four-parameter analysis following removal of background signal and normalisation to the DMSO control.

TYK2 = TYK2 (Homo sapiens, UniProt P29597); experiment: TYK2 kinase inhibition assay (33P-ATP filter binding, Reaction Biology)
TYK2, sequence (P29597 833-1187): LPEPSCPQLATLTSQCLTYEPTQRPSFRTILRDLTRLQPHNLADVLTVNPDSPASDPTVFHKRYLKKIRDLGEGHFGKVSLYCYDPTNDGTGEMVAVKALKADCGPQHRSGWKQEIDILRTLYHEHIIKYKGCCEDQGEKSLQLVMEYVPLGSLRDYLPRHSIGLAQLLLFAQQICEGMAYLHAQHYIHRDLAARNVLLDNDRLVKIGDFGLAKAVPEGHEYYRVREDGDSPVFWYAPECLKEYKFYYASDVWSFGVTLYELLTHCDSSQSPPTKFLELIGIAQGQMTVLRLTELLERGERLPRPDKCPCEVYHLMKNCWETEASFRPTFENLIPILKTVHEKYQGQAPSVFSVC

JAK1 = JAK1 (Homo sapiens, UniProt P23458); experiment: JAK1 kinase inhibition assay (33P-ATP filter binding, Reaction Biology)
JAK1, sequence (P23458 866-1154): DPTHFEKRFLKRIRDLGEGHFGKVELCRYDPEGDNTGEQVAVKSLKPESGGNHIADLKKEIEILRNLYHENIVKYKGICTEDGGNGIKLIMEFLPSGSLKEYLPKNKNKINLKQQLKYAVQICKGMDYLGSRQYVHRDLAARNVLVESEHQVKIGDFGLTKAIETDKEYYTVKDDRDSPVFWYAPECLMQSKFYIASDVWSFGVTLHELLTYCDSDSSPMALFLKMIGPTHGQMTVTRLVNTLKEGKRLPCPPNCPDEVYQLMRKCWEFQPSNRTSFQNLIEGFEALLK

JAK3 = JAK3 (Homo sapiens, UniProt P52333); experiment: JAK3 kinase inhibition assay (33P-ATP filter binding, Reaction Biology)
JAK3, sequence (P52333 781-1124): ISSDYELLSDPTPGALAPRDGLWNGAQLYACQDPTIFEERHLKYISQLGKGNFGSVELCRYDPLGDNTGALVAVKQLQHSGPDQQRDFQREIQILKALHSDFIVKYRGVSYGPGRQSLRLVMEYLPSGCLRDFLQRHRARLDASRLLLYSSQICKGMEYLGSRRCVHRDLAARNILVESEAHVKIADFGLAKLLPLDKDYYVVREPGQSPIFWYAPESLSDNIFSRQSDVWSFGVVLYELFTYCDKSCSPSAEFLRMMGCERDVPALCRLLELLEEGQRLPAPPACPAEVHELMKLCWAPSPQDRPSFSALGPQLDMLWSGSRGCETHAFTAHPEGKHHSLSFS

- pIC50 (pSTAT3 in HT29 cells; Homo sapiens, HT-29, HT29 cells, 10 ng/ml human IL-22): 6.77
- pIC50 (TYK2): 8.00
- pIC50 (JAK1): 7.31
- pIC50 (JAK3): 6.54
SMILES: NC(=O)c1nc(-c2c(F)cccc2Cl)oc1Nc1ccc(C(=O)N2CCOCC2)cc1 [A, 2-(2-chloro-6-fluoro-phenyl)-5-[4-(morpholine-4-carbonyl)-phenylamino]-oxazole-4-carboxylic acid amide, reference compound]
- inhibition at 10 µM (pSTAT3 in HT29 cells; HT-29, HT29 cells, 10 ng/ml human IL-22, 10 μM compound): 96.9%
